Data from a melting point compilation (Tetko et al.; mined from patent text by program, amines drawn as free bases though some values may be those of a salt).

Compared with `Cc1ccc2c(c1O)N=CC1CCCN1C2=O` (centres undefined), `O=C1c2cc3nnn(CC4(c5cccc(F)c5)CC4)c(=O)c3cc2OC2CCCN12` (centres undefined) is higher in melting point: 148 to 150 °C for the first, 162 to 163 °C for the second.

First: COc1ccc(C=CC2=NNC(C)Cc3cc4c(cc32)OCO4)c(OC)c1 (centres undefined)
Second: COc1ccc(S(=O)(=O)N2c3cc(F)ccc3-c3ccc(F)cc3C2C)c(OC)c1 (centres undefined)
The melting point of the first is higher: 176 to 178 °C for the first, 112 to 115 °C for the second.

First: CC(C)(C)c1ccc(-c2ccc(COc3cccc4cc(NS(=O)(=O)C(F)(F)F)ccc34)c(F)c2)cc1
Second: CCOC(=O)Cc1cccc2c(-c3ccc(N(C)C)cc3)nccc12
The melting point of the first is higher: 162 to 164 °C for the first, 132 to 135 °C for the second.

Compared with `O=C1Cc2ccccc2C=Cc2cc(Br)ccc21`, `CC1(C)C=C(c2cccnc2)c2cc(Br)ccc2OC1` is lower in melting point: 121 to 123 °C for the first, 116 °C for the second.

First: O=C(Nc1ccccc1)Oc1ccc(N=C=S)cc1
Second: Cc1ccc(C(=O)NC(NC(=S)Nc2ccccc2C)C(F)(F)F)cc1 (centres undefined)
The melting point of the first is lower: 139 to 142 °C for the first, 210 to 211 °C for the second.

First: C=C(C)C(=O)N1CC(C)OC1(C)C (centres undefined)
Second: O=C(O)C1C2CNCC21 (centres undefined)
The melting point of the first is lower: 24 °C for the first, 101 to 102 °C for the second.

Compared with `CC1Oc2cc(CN3CCN(c4ccncc4)CC3)ccc2NC1=O` (centres undefined), `CN1CCN(c2cccc(-c3ccc(C#N)c(=O)[nH]3)c2)CC1` is higher in melting point: 130 to 134 °C for the first, 264 to 267 °C for the second.

Compared with `COc1ncc(Nc2nc(N3CCOCC3)nc(-n3c(C(F)F)nc4c(OC)cccc43)n2)cn1`, `COc1cc2c(cc1OC)CCCC(C(=O)N1CCN(C(=O)c3cc(OC)c(OC)c(OC)c3)CC1)=C2` is lower in melting point: 255 to 258 °C for the first, 164 to 165 °C for the second.

First: Cn1c(CC(=O)O)ccc1C(=O)c1ccc(Br)cc1
Second: CC(=O)c1ccc(-c2ccc(O)c(Br)c2)cc1
The melting point of the first is higher: 188 °C for the first, 166 to 170 °C for the second.

Compared with `N#Cc1cccc(C=Cc2ccc(Cl)cc2)n1`, `Cc1oc(C=Cc2ccccc2Cl)nc1CC#N` is lower in melting point: 113 to 115 °C for the first, 89 to 90 °C for the second.

Compared with `O=C(/C=C/c1cccnc1)NCCc1cccc(O)c1`, `CCCCCCc1oc(C=Cc2ccccc2)nc1CC(=O)O` is lower in melting point: 163 to 164 °C for the first, 107 to 108 °C for the second.

First: CCOC(=O)c1cnn2c1nc(N(CC)CC)c1cnc3c(cnn3CC)c12
Second: CCOC(=O)c1sc(N2CCN(Cc3ccccc3)C2=O)nc1C
The melting point of the first is higher: 170 to 172 °C for the first, 122 to 124 °C for the second.

First: CCCCS(=O)Cc1ccc(CS(=O)CCCC)cc1 (centres undefined)
Second: CCCCCCn1ccc(=O)c(OCc2ccccc2)c1C
The melting point of the first is higher: 187 to 188 °C for the first, 46 °C for the second.

First: O=c1[nH]c2cc(F)ccc2n(C2CCCCC2)c1=O
Second: Fc1ccc2[nH]cc(CC3CCNCC3)c2c1
The melting point of the first is higher: 290 °C for the first, 155 to 157 °C for the second.

Compared with `CCCCOc1ccc(Oc2ccc(C#CC(C)N(O)C(N)=O)o2)cc1` (centres undefined), `CC(=O)OCCN(C)CC#CC1=Cc2ccccc2Sc2ccc(Cl)cc21` is lower in melting point: 128 to 129 °C for the first, 48 to 51 °C for the second.

Compared with `COc1ccc2c(c1)N(CC(=O)O)C(=O)C(N)CC2` (centres undefined), `C#CCN1CCCc2ccc(OC(=O)NCCCCCCC)cc21` is lower in melting point: greater than 300 °C for the first, 54 °C for the second.

Compared with `O=C1C2Cc3cc4ccccc4n3CC2CN1Cc1ccccc1` (centres undefined), `c1ccc(CCN2Cc3sccc3C(c3ccccc3)C2)cc1` (centres undefined) is lower in melting point: 121 to 123 °C for the first, 110 °C for the second.

Compared with `Nc1sc2c(c1C(=O)c1ccc(Cl)cc1)CCN(CCCc1ccccc1)C2`, `Cc1sc2c(c1C(=O)c1ccccc1)CCC2C(N)=O` (centres undefined) is higher in melting point: 98 to 100 °C for the first, 165 to 168 °C for the second.

First: Cc1nncn1-c1ccc(Cl)cc1C(=O)O
Second: Cc1nnsc1C(=O)c1[nH]c2ccc(Cl)cc2c1CC(=O)O
The melting point of the first is higher: 252 to 254 °C for the first, 229 to 230 °C for the second.

Compared with `N#Cc1cc(C(=O)NNC(=O)c2occ(-c3ccccc3)c2-c2ccccc2)ccc1OC(=O)c1ccccc1`, `COc1cc(OC(=O)c2ccccc2)c2ccccc2c1OC(=O)c1ccccc1` is lower in melting point: 163 to 167 °C for the first, 63 to 64 °C for the second.

First: O=[N+]([O-])c1cccc(-c2cc(C(O)c3ccnc(Cl)c3)cc3ccoc23)c1 (centres undefined)
Second: O=[N+]([O-])c1cc2nccnc2cc1Sc1cccc2cnccc12
The melting point of the first is lower: 178 to 180 °C for the first, 222 to 225 °C for the second.

First: CCc1nn2ccccc2c1N(CCCF)C(=O)COC
Second: CCOC(=O)Cn1cc(CC(=O)O)c2ccccc21
The melting point of the first is lower: 59.9 to 63.9 °C for the first, 138 °C for the second.

Compared with `CC(C)Cc1c2c(nn1Cc1ccccc1)c(N)nc1ncccc12`, `c1ccc(C(c2ccc3[nH]cnc3c2)n2ccnc2)cc1` (centres undefined) is lower in melting point: 232 to 235 °C for the first, 186 °C for the second.

First: CC(Cl)(Cl)C(NC(=O)c1ccc(Cl)cc1)NC(=NC#N)Nc1ccccc1F (centres undefined)
Second: O=C(Nc1ccc(F)cc1F)Nc1c(-c2ccccc2)c2cc(Cl)ccc2[nH]c1=O
The melting point of the first is lower: 216 to 217 °C for the first, 222 to 224 °C for the second.

Compared with `CC(=O)OC(c1ccccc1)C1CNC1=O` (centres undefined), `COC(=O)C(C(=O)OC)[C@H]1C=Cc2ccccc2[C@H]1O` (relative stereo) is lower in melting point: 96 to 97 °C for the first, 65 to 67 °C for the second.

First: CCCC[C@@H](NC(=O)[C@H](Cc1ccc(O)cc1)NC(=O)OC(C)(C)C)C(=O)NCC(=O)Oc1c(Cl)c(Cl)c(Cl)c(Cl)c1Cl
Second: COCCCOc1cc(CC(CC2C(OC(=O)OC(C)(C)C)CC(C(C)(C)O)C(=O)N2C(=O)OC(C)(C)C)C(C)C)ccc1OC (centres undefined)
The melting point of the first is higher: 175 to 177 °C for the first, 118 to 119 °C for the second.

Compared with `Cc1nc(COc2cc(-n3c(=O)cc(C(F)(F)F)n(C)c3=O)c(F)cc2Cl)cs1`, `COc1cc(NC(=O)C2C(=O)N(C)C(=S)N(C)C2=O)ccc1Oc1ccc(C(F)(F)F)cc1Cl` is higher in melting point: 145 to 147 °C for the first, 178 to 182 °C for the second.

First: Fc1cccnc1N1CCC2(CC1)COOC2
Second: N#Cc1cc(N2CCC(N3CCOCC3)CC2)ccc1N
The melting point of the first is lower: 45 to 47 °C for the first, 178 to 180 °C for the second.

First: Cn1cnc(=S)c(-c2cccc(C(F)(F)F)c2)c1
Second: CCN(CC)C(=O)c1ccoc1-c1ccc(C(F)(F)F)cc1
The melting point of the first is higher: 197 to 200 °C for the first, 45 to 48 °C for the second.

First: FC(F)(F)C(/C=C/c1ccc(CNc2ccccn2)c(Cl)c1)c1cc(Cl)c(Cl)c(Cl)c1 (centres undefined)
Second: Oc1c(Br)cc(-c2c3ccccc3c(C(F)(F)F)c3sc4ccccc4c23)cc1Br
The melting point of the first is lower: 140 to 142 °C for the first, 223 to 225 °C for the second.

First: CCOC(=O)CC(C#N)=CC(=CN(C)C)c1ccc(Cl)cc1
Second: CCCc1c(O)ccc(C(=O)OC)c1O
The melting point of the first is higher: 168 to 170 °C for the first, 66 to 68 °C for the second.

First: C1=Cc2c3c(ccc2=N1)=CC=N3
Second: NCc1ccc(-c2ccccc2-c2nnn[nH]2)cc1
The melting point of the first is lower: 201 to 205 °C for the first, greater than 260 °C for the second.

First: COc1cc(Nc2c(C#N)cnc3cc(-c4csc(C5OCCO5)c4)sc23)c(Cl)cc1Cl
Second: O=c1nc(-c2ccccc2)c2cc(Cl)sc2n1CC1CC1
The melting point of the first is higher: 219 to 221 °C for the first, 149 to 151 °C for the second.

First: COc1ccccc1[C@H](c1cccc2ccccc12)[C@@](C)(C#N)C(=O)N1CC=C(c2c[nH]c3ccccc23)CC1
Second: CCCOc1ccc2ccccc2c1-c1c(OCCC)ccc2ccccc12
The melting point of the first is higher: 229 to 231 °C for the first, 87 °C for the second.

First: ClCc1coc(C2=Cc3ccccc3CC2)n1
Second: CC1(C)CCC(C)(C)c2c1ccc(CS(=O)(=O)c1ccccc1)c2N
The melting point of the first is lower: 73 to 74 °C for the first, 156 to 157 °C for the second.

First: CCOC(C#CC(=NC(c1ccccc1)(c1ccccc1)c1ccccc1)C(F)F)OCC
Second: Cc1cc(C)cc(C(=O)N2CCC(Nc3nc4ccccc4n3Cc3cccs3)CC2Cc2ccccc2)c1 (centres undefined)
The melting point of the first is lower: 173 to 175 °C for the first, 201 °C for the second.

Compared with `O=c1c(Cl)c(OCc2ccc(Cl)cc2)cnn1CCCBr`, `COc1ccc(C(=O)Cc2ccc(Br)cc2)c(Cl)c1Cl` is higher in melting point: 83 to 87 °C for the first, 163 to 164 °C for the second.

Compared with `N#CC1CN1C(=O)c1ccc(Cl)cc1Cl` (centres undefined), `CCc1nc2c(n1C(CC)CC)C(=O)N(C)C(C)N2c1ccc(Cl)cc1Cl` (centres undefined) is higher in melting point: 95 to 97 °C for the first, 135 to 136 °C for the second.

First: CC1=C(C(=O)OC(C)C)C(c2cccc(Cl)c2)N(C(=O)Oc2ccc([N+](=O)[O-])cc2)CN1 (centres undefined)
Second: O=C1NC(=O)C(Cc2ccc(OCCN3C(=O)SC(c4ccccc4)C3=O)cc2)S1 (centres undefined)
The melting point of the first is higher: 165 to 167 °C for the first, 67 °C for the second.

First: O=C1CCCc2ccc([N+](=O)[O-])cc2N1
Second: O=C1OCCc2ccc([N+](=O)[O-])cc21
The melting point of the first is higher: 224 to 226 °C for the first, 124 to 125 °C for the second.

First: Cc1ccc(S(=O)(=O)OCC2Cc3cccc(-c4c(Cl)cccc4Cl)c3O2)cc1 (centres undefined)
Second: COC(=O)c1ccccc1S(=O)(=O)NC(=O)Nc1cc(C)cc(C)n1
The melting point of the first is lower: 178 to 180 °C for the first, 181 to 182 °C for the second.

First: Cc1nc2cc(NC(=O)c3cc4cccnc4n3-c3ccncc3)ccc2s1
Second: CC1(C)C(=O)Nc2cc([N+](=O)[O-])c(NC(=O)c3ccncc3)cc21
The melting point of the first is lower: 236 to 238 °C for the first, 310 to 318 °C for the second.

First: O=C(O)c1cn(-c2cccs2)c2cc(F)c(F)cc2c1=O
Second: O=C(O)c1cn(C2COC2)c2cc(F)c(F)c(O)c2c1=O
The melting point of the first is lower: 245 to 246 °C for the first, 273 to 276 °C for the second.

Compared with `CC(C)(C)N=NC(C)(C)C#N`, `CON(C)C(=O)c1nc(C(C)(C)C)c(O)c(C(C)(C)C)n1` is higher in melting point: 17 °C for the first, 137 to 138 °C for the second.

First: Cc1nc2c(NC(=O)C(C)(C)C)cccn2c1Cl
Second: COC(=O)C(C)(C)c1ccc2cc(OC)ccc2c1
The melting point of the first is higher: 117 to 118 °C for the first, 97 to 98 °C for the second.

First: CCOC(=O)c1c[nH]cc1-c1cccc(F)c1
Second: CC(=O)c1ccc(-c2ccc(F)cc2F)c(Cl)c1
The melting point of the first is higher: 120 to 122 °C for the first, 63 to 64 °C for the second.

First: CCOP(=O)(O)C(=Nc1ccc(-c2c[nH]cn2)cc1)NC(C)C
Second: Cc1nc[nH]c1CSCCN=C(NC#N)NCCc1c[nH]cn1
The melting point of the first is higher: 235 °C for the first, 170 to 171 °C for the second.

Compared with `COc1cc(C=CC(=O)CCCO)cc(OC)c1`, `COc1ccc(Br)cc1S(=O)(=O)NC(C)(C)CO` is higher in melting point: 74 to 77 °C for the first, 168 °C for the second.

First: CCCCCCCCCCCCCCOc1ccc(CN(C(=O)c2cccnc2)c2ccccc2)cc1
Second: OCC/C(CCCCCCCCS)=C(\CCO)CCCCCCCCS
The melting point of the first is lower: 65 to 67 °C for the first, 67.4 to 68.2 °C for the second.

Compared with `COC(=O)c1cccc(Cn2c(C(=O)NC(N)=S)cc3cc(C)cc(C)c32)c1`, `Cc1cccc(C(=O)Nc2nc(C(Cl)(Cl)Cl)ns2)c1` is lower in melting point: 198 to 199 °C for the first, 142 °C for the second.

Compared with `Cc1nc(N)c2nc(C)n(CCCCCS(C)(=O)=O)c2c1C`, `CCCCc1ncc(/C=C(\Cc2cccs2)c2nnn[nH]2)n1Cc1ccccc1[N+](=O)[O-]` is higher in melting point: 199 to 200 °C for the first, 231 to 234 °C for the second.

First: CCCCNC(=O)NC(N)=O
Second: CC1(C)OC(=O)Nc2ccc(-c3cc(F)cc(-c4ccsc4)c3)cc21
The melting point of the first is lower: 129 to 131 °C for the first, 200 to 203 °C for the second.
